The values below come from patent US20230355613A1, “METHODS FOR TREATING PANCREATIC DUCTAL ADENOCARCINOMA” (HEALTH RESEARCH, INC., priority 2022, published 2023).

In the test the test system is PDAC cell lines. As to the kind of experiment: Clonogenic growth (colony formation) assay. The note with it: all PDAC cell lines tested, 11-14 days. Format: cell-based, human. From the text: PDAC cells are sensitive to chemical inhibition of CPSF3. CPSF3 was recently identified as the target for the small molecule JTE-607. JTE-607 is a prodrug that, when metabolized by the ester hydrolyzing enzyme carboxylesterase 1 (CES1), binds to CPSF3 and inhibits its catalytic activity, impairing the processing of newly synthesized mRNAs. As genetic depletion of CPSF3 attenuated PDAC cell proliferation (FIG. 1), it 2as hypothesized that pharmacologic inhibition of CPSF3 with JTE-607 could represent a novel therapeutic approach in PDAC. The sensitivity of multiple human pancreatic cell lines, both non-transformed and PDAC, to JTE-607 in a 72-hour dose-response cell viability assay was examined. […] To examine if sensitivity to CPSF3 inhibition was associated with proliferation rate, the relationship between cell line doubling time and JTE-607 sensitivity was assessed. […] Next, the effect of JTE-607 on cell proliferation by treating cells with increasing concentrations of JTE-607 and assessing cell viability in a time-dependent fashion (FIGS. 2C-2E) was determined. […]
JTE-607 studies. […] The next day, JTE-607 was titrated over a range of concentrations using the Tecan D300e Digital Dispenser and cell viability was measured 72 hours post drug titration using a CellTiter-Glo Luminescent Cell Viability Assay Kit (Promega). […] Colony area was measured using ImageJ software. […]

`CCOC(=O)[C@H](Cc1ccccc1)NC(=O)c1cc(Cl)c(OCCN2CCN(C)CC2)c(Cl)c1O` [JTE-607]: the colony formation result was “significantly decreased colony formation”.
